Values joined by “and” are separate entries in the source; they are usually repeats but may differ in a detail not shown here. Identical values can stand only once. Like-named read-outs stand apart in the source and are kept apart here.
Columns and labels:
[1] = system: allogeneic antigen-induced mouse spleen lymphocytes; assay: Mixed lymphocyte culture, 3H-TdR incorporation; assay type: cell-based, C57BL/6 and BALB/C mice
Experimental: Preparation of Stimulator Cells: a Cell Suspension of Balb/C Mouse Spleen Lymphocytes was irradiated by cesium 137 at 3000 Rads using a Gamma radiometer (Gammacell 3000) to make the cells lose their proliferation ability. After washed by RPMI-1640 for 2 times, the cell concentration was adjusted to 5×10^6/ml.
Preparation of responder cells: C57BL/6 mouse spleen lymphocytes were used as the responder cells, and the cell concentration was 5×10^6/ml.
Mixed lymphocyte culture: 50 μl cell suspension of C57BL/6 mouse spleen lymphocytes was inoculated on a 96-well plate, and 50 μl cell suspension of BALB/C mouse spleen lymphocytes treated by cesium 137 was added therein, followed by addition of 50 μl compound at different concentrations. The total volume for each well was 200 μl. If the total volume was less than 200 μl, it was supplemented with RMPI-1640 medium. The tests were divided into 3 groups, i.e., BALB/C mouse group, C57BL/6 mouse group and BALB/C and C57BL/6 mice mixed culture group. The test was carried out in triplicate wells for each concentration, and included control wells without the compound, with only the stimulator cells and with only the responder cells. The 96-well plate was incubated in an incubator at 37° C. with 5% CO2 for 3 to 5 days. 8 hours before the end of incubation, 25 μl of ^3H-thymidine (10 μCi/ml) was added in each well. After the incubation was completed, cells were harvested by a cell harvester on a glass fiber film. After addition of a scintillation fluid, the amount of ^3H-TdR incorporated in cell DNA was determined by a Beta cell counter (MicroBeta Trilux, PerkinElmer), and the cell proliferation was represented as a cpm value.

T Cells = assay: Immunosuppressive activity assay: T cells inhibitory activity; assay type: cell-based; details: T-cell; Table 10
[2] = system: normal mouse spleen B lymphocytes induced by LPS; assay: 3H-TdR incorporation, LPS-induced B lymphocyte proliferation; assay type: cell-based, BALB/c mice; details: LPS, 48 hours, 3H-TdR, read-out: IC50, proliferation of B lymphocytes induced by LPS
Experimental: ^3H-thymidine incorporation was adopted to measure the effect of the in vitro administered compound on the proliferation function of the spleen lymphocytes of normal mice induced by a mixed culture of mitogen/allogeneic mouse spleen lymphocytes, and evaluate the in vitro immunosuppressive activity of the compound.
Measurement of the effects of compounds on the proliferation function of mouse spleen lymphocytes induced by mitogen by ^3H-TdR incorporation: 100 μl cell suspension of mouse spleen lymphocytes was inoculated on a 96-well plate (4×10^5 per well), followed by addition of 50 μl of ConA (final concentration: 5 μg/ml), 50 μl of LPS (final concentration: […]) or 50 μl of compound at different concentrations. The total volume of each well was 200 μl. The test was carried out in triplicate wells for each concentration, and included control wells without ConA/LPS or the compound. After the 96-well plate was placed in an incubator at 37° C. with 5% CO2 for 48 hours, 25 μl of ^3H-thymidine (10 μCi/ml) was added in each well 8 hours before the end of incubation. […] The amount of ^3H-TdR incorporated in cell DNA was determined by a Beta cell counter (MicroBeta Trilux, PerkinElmer), and the cell proliferation was represented as a cpm value.

[3] = Distribution profile of prototype drug and rapamycin in plasma, liver and tumor of nude mice (LC-MS); assay type: in vivo; parameters: AUC0-t (ng · h/g or ng · h/ml): concentration or dose not given beside the values; details: for concentration at 0.5 h / concentration at 2 h / concentration at 5 h: nude, mouse; for AUC0-t (ng · h/g or ng · h/ml): substance determined: Sirolimus
[4] = MTT cytotoxicity on mouse spleen lymphocytes; assay type: cell-based, BALB/c mice; details: BALB/c, MTT assay
Experimental: 3-(4,5-dimethylthylthiazol-2-yl)-2,5-diphenyl tetrazolium bromide (MTT) assay was adopted to measure the effect of the in vitro administered compound on the activity of the spleen lymphocytes of normal mice, and evaluate the cytotoxicity of the compound.
They were dissolved in DMSO before testing to prepare a stock solution, which was diluted to a desired concentration with the medium when use.
100 μl cell suspension of mouse spleen lymphocytes was inoculated on a 96-well plate (4×10^5 per well), and the compound at different concentrations was added therein, including additional solvent control or medium background control, wherein, the total volume of each well was 200 μl. After the 96-well plate was placed in an incubator at 37° C. with 5% CO2 for 48 hours, 20 μl (5 mg/ml) of MTT solution was added 6 to 7 hours before the end of incubation. Then after the incubation was completed, 100 μl of supernatant was removed for each well, and 100 μl of […] was added therein. After the 96-well plate was placed in the incubator for 6 to 7 hours, OD values were determined on an ELISA Reader at the wavelength of 570 nm.

[5] = 0.5 h after administration, individual animals
[6] = 2.0 h after administration, individual animals
[7] = 5.0 h after administration, individual animals
[8] = 12 h after administration, individual animals
[9] = 48 h after administration, individual animals

CO[C@H]1C[C@@H]2CC[C@@H](C)[C@@](O)(O2)C(=O)C(=O)N2CCCC[C@H]2C(=O)O[C@H]([C@H](C)C[C@@H]2CC[C@@H](OC(=O)OCC(O)CO)[C@H](OC)C2)CC(=O)[C@H](C)/C=C(\C)[C@@H](O)[C@@H](OC)C(=O)[C@H](C)C[C@H](C)/C=C/C=C/C=C/1C (stereo partly shown) [Y31]
CPM Mean value ([1]; 0.1342 nM): 1338
CPM Mean value ([1]; 0.3355 nM): 1296
CPM Mean value ([1]; 0.8389 nM): 1202
CPM Mean value ([1]; 2.0972 nM): 1137
CPM Mean value ([1]; 5.2429 nM): 1131
CPM Mean value ([1]; 13.107 nM): 1137
CPM Mean value ([1]; 32.768 nM): 1189
CPM Mean value ([1]; 81.9 nM): 1314
CPM Mean value ([1]; 204.8 nM): 1090
CPM Mean value ([1]; 512 nM): 1436
CPM Mean value ([1]; 1280 nM): 1209
CPM Mean value ([1]; 3200 nM): 1132
CPM Mean value ([1]; 8000 nM): 1190
CPM Mean value ([1]; 20000 nM): 815
inhibition at 0.0001342 µM ([1]; Mus musculus, Lymphocyte, 0.1342 nM): 82%
inhibition at 0.0003355 µM ([1]; Mus musculus, Lymphocyte, 0.3355 nM): 82%
inhibition at 0.0008389 µM ([1]; Mus musculus, Lymphocyte, 0.8389 nM): 84%
inhibition at 0.0020972 µM ([1]; Mus musculus, Lymphocyte, 2.0972 nM): 85%
inhibition at 0.0052429 µM ([1]; Mus musculus, Lymphocyte, 5.2429 nM): 85%
inhibition at 0.013107 µM ([1]; Mus musculus, Lymphocyte, 13.107 nM): 85%
inhibition at 0.032768 µM ([1]; Mus musculus, Lymphocyte, 32.768 nM): 84%
inhibition at 0.0819 µM ([1]; Mus musculus, Lymphocyte, 81.9 nM): 82%
inhibition at 0.2048 µM ([1]; Mus musculus, Lymphocyte, 204.8 nM): 85%
inhibition at 0.512 µM ([1]; Mus musculus, Lymphocyte, 512 nM): 80%
inhibition at 1.28 µM ([1]; Mus musculus, Lymphocyte, 1280 nM): 84%
inhibition at 3.2 µM ([1]; Mus musculus, Lymphocyte, 3200 nM): 85%
inhibition at 8 µM ([1]; Mus musculus, Lymphocyte, 8000 nM): 84%
inhibition at 20 µM ([1]; Mus musculus, Lymphocyte, 20000 nM): 89%
IC50 (T Cells): 50 nM
IC50 [2]: 97.8 nM
Y31 (prototype) concentration, Blood Plasma [3, 5]: 2.47 ng/mL and 3.03 ng/mL
Y31 (prototype) concentration, Liver [3, 5]: 14.3 ng/g and 6.24 ng/g and 8.61 ng/g
Y31 (prototype) concentration, Tumor [3, 5]: BLQ (BLQ: below the limit of Quantitation, 0.2 ng/ml (blood plasma); 1.0 ng/g(tissue))
Y31 (prototype) concentration, Blood Plasma [3, 6]: 0.70 ng/mL and 0.58 ng/mL and 0.20 ng/mL
Y31 (prototype) concentration, Liver [3, 6]: 13.4 ng/g and 17.4 ng/g
Y31 (prototype) concentration, Tumor [3, 6]: BLQ (BLQ: below the limit of Quantitation, 0.2 ng/ml (blood plasma); 1.0 ng/g(tissue))
Y31 (prototype) concentration, Blood Plasma [3, 7]: BLQ (BLQ: below the limit of Quantitation, 0.2 ng/ml (blood plasma))
Y31 (prototype) concentration, Liver [3, 7]: 0.88 ng/g and 0.91 ng/g and 2.16 ng/g
Y31 (prototype) concentration, Tumor [3, 7]: BLQ (BLQ: below the limit of Quantitation, 0.2 ng/ml (blood plasma); 1.0 ng/g(tissue))
Y31 (prototype) concentration, Blood Plasma [3, 8]: BLQ (BLQ: below the limit of Quantitation, 0.2 ng/ml (blood plasma))
Y31 (prototype) concentration, Liver [3, 8]: BLQ (BLQ: below the limit of Quantitation, 0.2 ng/ml (blood plasma); 1.0 ng/g(tissue))
Y31 (prototype) concentration, Tumor [3, 8]: BLQ (BLQ: below the limit of Quantitation, 0.2 ng/ml (blood plasma); 1.0 ng/g(tissue))
Y31 (prototype) concentration, Blood Plasma [3, 9]: BLQ (BLQ: below the limit of Quantitation, 0.2 ng/ml (blood plasma))
Y31 (prototype) concentration, Liver [3, 9]: BLQ (BLQ: below the limit of Quantitation, 0.2 ng/ml (blood plasma); 1.0 ng/g(tissue))
Y31 (prototype) concentration, Tumor [3, 9]: BLQ (BLQ: below the limit of Quantitation, 0.2 ng/ml (blood plasma); 1.0 ng/g(tissue))
maximum concentration of the prototype drug in blood plasma and tissues ([3]; after administration to nude mice): less than 20 ng/ml or ng/g
prototype drug 5 hours after the administration ([3]; blood plasma and tissues): not detectable
concentration at 0.5 h ([3]; liver, 0.5 h after administration, mean of 3 animals, read-out: Y31 (prototype) concentration, Liver, Mean Value): 9.72 ng/g
concentration at 2 h ([3]; liver, 2.0 h after administration, individual animals, read-out: Y31 (prototype) concentration, Liver): 12.4 ng/g
concentration at 2 h ([3]; liver, 2.0 h after administration, mean of 3 animals, read-out: Y31 (prototype) concentration, Liver, Mean Value): 14.4 ng/g
concentration at 5 h ([3]; liver, 5.0 h after administration, mean of 3 animals, read-out: Y31 (prototype) concentration, Liver, Mean Value): 1.32 ng/g
concentration at 0.5 h ([3]; plasma, 0.5 h after administration, individual animals, read-out: Y31 (prototype) concentration, Blood Plasma): 1.7 ng/mL
concentration at 0.5 h ([3]; plasma, 0.5 h after administration, mean of 3 animals, read-out: Y31 (prototype) concentration, Blood Plasma, Mean Value): 2.4 ng/mL
concentration at 2 h ([3]; plasma, 2.0 h after administration, mean of 3 animals, read-out: Y31 (prototype) concentration, Blood Plasma, Mean Value): 0.49 ng/mL
concentration at 5 h ([3]; plasma, 5.0 h after administration, individual animals, read-out: Y31 (prototype) concentration, Blood Plasma): 0.18 ng/mL
AUC0-t (ng · h/g or ng · h/ml) ([3]; Liver): 4031 ng·h/g
AUC0-t (ng · h/g or ng · h/ml) ([3]; Tumor): 2948 ng·h/g
CC50 at 48 h [4]: 36900 nM
